Source: patent US20100197727A1, “Quinoline Derivatives as Antibacterial Agents” (priority 2005, published 2010)

How the values were obtained:
[1] = system: Bacillus subtilis (ATCC43639); assay: Microtitre plate assay, IC90 determination; assay type: cell-based; details: 90% inhibitory concentration for bacterial growth
Method: (§1) The bacteria used in this study were grown overnight in flasks containing 100 ml Mueller-Hinton Broth (Becton Dickinson—cat. no. 275730) in sterile de-ionized water, with shaking, at 37° C. Stocks (0.5 ml/tube) were stored at −70° C. until use. Bacteria titrations were performed in microtiter plates and colony forming units (CFUs) were determined In general, an inoculum level of approximately 100 CFUs was used for susceptibility testing.
(§2) Flat-bottom, sterile 96-well plastic microtiter plates were filled with 180 μl of sterile deionized water, supplemented with 0.25% BSA. Subsequently, stock solutions (7.8× final test concentration) of compounds were added in 45 μl volumes in column 2. Serial five-fold dilutions (45 μl in 180 μl ) were made directly in the microtiter plates from column 2 to reach column 11. Untreated control samples with (column 1) and without (column 12) inoculum were included in each microtiter plate. Depending on the bacteria type, approximately 10 to 60 CFU per well of bacteria inoculum (100 TCID50), in a volume of 100 μl in 2.8× Mueller-Hinton broth medium, was added to the rows A to H, except column 12. The same volume of broth medium without inoculum was added to column 12 in row A to H. The cultures were incubated at 37° C. for 24 hours under a normal atmosphere (incubator with open air valve and continuous ventilation). At the end of incubation, one day after inoculation, the bacterial growth was quantitated fluorometrically. Therefore resazurin (0.6 mg/ml) was added in a volume of 20 μl to all wells 3 hours after inoculation, and the plates were re-incubated overnight. A change in colour from blue to pink indicated the growth of bacteria. The fluorescence was read in a computer-controlled fluorometer (Cytofluor Biosearch) at an excitation wavelength of 530 nm and an emission wavelength of 590 nm. The % growth inhibition achieved by the compounds was calculated according to standard methods. The IC90 (expressed in μg/ml) was defined as the 90% inhibitory concentration for bacterial growth.

[2] = system: Enterococcus faecalis (ATCC14506); assay: Microtitre plate assay, IC90 determination; assay type: cell-based; details: 90% inhibitory concentration for bacterial growth
Method: as §1, §2

[3] = system: Enterococcus faecalis (ATCC29212); assay: Microtitre plate assay, IC90 determination; assay type: cell-based; details: 90% inhibitory concentration for bacterial growth
Method: as §1, §2

[4] = system: Escherichia coli (ATCC25922); assay: Microtitre plate assay, IC90 determination; assay type: cell-based; details: 90% inhibitory concentration for bacterial growth
Method: as §1, §2

[5] = system: Listeria monocytogenes (ATCC49594); assay: Microtitre plate assay, IC90 determination; assay type: cell-based; details: 90% inhibitory concentration for bacterial growth
Method: as §1, §2

[6] = system: Pseudomonas aeruginosa (ATCC27853); assay: Microtitre plate assay, IC90 determination; assay type: cell-based; details: 90% inhibitory concentration for bacterial growth
Method: as §1, §2

[7] = system: Staphylococcus aureus (ATCC25923); assay: Microtitre plate assay, IC90 determination; assay type: cell-based; details: 90% inhibitory concentration for bacterial growth
Method: as §1, §2

[8] = system: Staphylococcus aureus (ATCC29213); assay: Microtitre plate assay, IC90 determination; assay type: cell-based; details: 90% inhibitory concentration for bacterial growth
Method: as §1, §2

[9] = system: Staphylococcus aureus (ATCC43300); assay: Microtitre plate assay, IC90 determination; assay type: cell-based; details: 90% inhibitory concentration for bacterial growth
Method: as §1, §2

[10] = system: Streptococcus mutans (ATCC33402); assay: Microtitre plate assay, IC90 determination; assay type: cell-based; details: 90% inhibitory concentration for bacterial growth
Method: as §1, §2

[11] = system: Streptococcus pneumoniae (ATCC6305); assay: Microtitre plate assay, IC90 determination; assay type: cell-based; details: 90% inhibitory concentration for bacterial growth
Method: as §1, §2

[12] = system: Streptococcus pyogens (ATCC8668); assay: Microtitre plate assay, IC90 determination; assay type: cell-based; details: 90% inhibitory concentration for bacterial growth
Method: as §1, §2

[13] = system: methicilline resistant Staphylococcus aureus (MRSA) (a clinical isolate from the University of Antwerp); assay: Microtitre plate assay, IC90 determination; assay type: cell-based; details: 90% inhibitory concentration for bacterial growth
Method: as §1, §2

S. aureus = assay: Time kill assay; assay type: cell-based, Staphylococcus aureus; details: for bactericidal activity in time kill assay: observed at 1 and 10 times MIC90
Excerpt: (§3) Bactericidal or bacteriostatic activity of the compounds may be determined in a time kill assay using the broth microdilution method*. In a time kill assay on Staphylococcus aureus and methicillin resistant S. aureus (MRSA), the starting inoculum of S. aurues and MRSA is 10^6 CFU/ml in Muller Hinton broth. The antibacterial compounds are used at the concentration of 0.1 to 10 times the MIC (i.e. IC90 as determined in microtitre plate assay). Wells receiving no antibacterial agent constitute the culture growth control. The plates containing the microorganism and the test compounds are incubated at 37° C. After 0, 4, 24, and 48 hrs of incubation samples are removed for determination of viable counts by serial dilution (10^−1 to 10^−6) in sterile PBS and plating (200 μl) on Mueller Hinton agar. The plates are incubated at 37° C. for 24 hrs and the number of colonies are determined Killing curves can be constructed by plotting the log10 CFU per ml versus time. A bactericidal effect is commonly defined as 3-log10 decrease in number of CFU per ml as compared to untreated inoculum. The potential carryover effect of the drugs is removed by serial dilutions and counting the colonies at highest dilution used for plating. No carryover effect is observed at the dilution of 10^−2 used for plating. […] Antimicrob. Agents Chemother. 40, 839-845 (1996).
A time kill assay was performed with compound 102 and the control drug ciprofloxacin.

[14] = system: Escherichia coli (ATCC35218); assay: Microtitre plate assay, IC90 determination; assay type: cell-based; details: 90% inhibitory concentration for bacterial growth
Method: as §1, §2

MRSA = assay: Time kill assay; assay type: cell-based, methicillin resistant S. aureus
Excerpt: as §3, with “(1996). […]” for “(1996).”

Row | SMILES | IC90 BSU 43639 [1] [µg/mL] | IC90 EFA 14506 [2] [µg/mL] | IC90 EFA 29212 [3] [µg/mL] | IC90 ECO 25922 [4] [µg/mL] | IC90 LMO 49594 [5] [µg/mL] | IC90 PAE 27853 [6] [µg/mL] | IC90 STA 25923 [7] [µg/mL] | IC90 STA 29213 [8] [µg/mL] | IC90 STA 43300 [9] [µg/mL] | IC90 SMU 33402 [10] [µg/mL] | IC90 SPN 6305 [11] [µg/mL] | IC90 SPY 8668 [12] [µg/mL] | IC90 STA RMETH [13] [µg/mL] | MIC (1× MIC used in time kill assay) (S. aureus; MIC i.e. IC90 as determined in microtitre plate assay) [µg/mL] | growth in time kill assay (S. aureus; at 0.1 times the MIC) | bactericidal activity in time kill assay (S. aureus) | IC90 ECO 35218 [14] [µg/mL] | bactericidal activity in time kill assay (MRSA)
1 | COc1nc2ccc(Br)cc2cc1C(c1ccccc1)C(O)(CC[N+](C)(C)C)c1cccc2ccccc12.[I-] (single isomer, unassigned) [Compound 102] | 2.8 | 2.8 | 2.8 | 13.9 | 2.2 | 13.9 | 2.2 | 2.8 | 3.5 | 2.5 | 3.1 | 2.5 | 2.8 | 2.3 | followed the control in growth | bactericidal activity | – | –
2 | COc1nc2ccc(Br)cc2cc1C(c1ccccc1)C(O)(CC[N+](C)(C)C)c1cccc2ccccc12.[I-] (single isomer, unassigned) [Compound 103] | 2.8 | 2.8 | 2.8 | 11.1 | 0.5 | 13.9 | 2.2 | 2.0 | 2.8 | 2.8 | 3.5 | 2.8 | 2.2 | – | – | – | 17.5 | –
3 | O=C(O)c1cn(C2CC2)c2cc(N3CCNCC3)c(F)cc2c1=O [ciprofloxacin, reference compound] | – | – | – | – | – | – | – | – | – | – | – | – | – | – | – | bactericidal activity | – | no bactericidal effect
